Data published in patent US20160256449A1, “H3 RECEPTOR ANTAGONIST FOR USE IN THE TREATMENT OF ALZHEIMER'S DISEASE” (SANOFI, priority 2013, published 2016).

Columns and labels:
scopolamine treated mice = assay: object recognition task in scopolamine-treated mice; type: in vivo
Excerpt: FIG. 2 illustrates the results of the effect of a co-treatment with 2-(cyclohexylmethyl)-N-{2-[(2S)-1-methylpyrrolidin-2-yl]ethyl}-1,2,3,4-tetrahydroisoquinoline-7-sulfonamide and donepezil on recognition memory deficit in scopolamine-treated mice using the object recognition task.
The results of this study are depicted in FIG. 2.

[1] = tested on: patients with mild to moderate Alzheimer's disease; assay: clinical study, Neuropsychiatric Inventory (NPI) domain scores; type: in vivo, human
Procedure: A randomized, double-blind, parallel-group, placebo-controlled clinical trial was performed to study the effect on cognitive performance, safety, and tolerability of 2-(cyclohexylmethyl)-N-{2-[(2S)-1-methylpyrrolidin-2-yl]ethyl}-1,2,3,4-tetrahydroisoquinoline-7-sulfonamide difumarate monohydrate as adjunct treatment to donepezil.
More specifically, patients with mild to moderate Alzheimer's disease on stable donepezil therapy were randomized to receive doses of 0.5 mg, 2 mg, or 5 mg/day of 2-(cyclohexylmethyl)-N-{2-[(2S)-1-methylpyrrolidin-2-yl]ethyl}-1,2,3,4-tetrahydroisoquinoline-7-sulfonamide difumarate monohydrate or placebo for 24 weeks, with a 10 week follow-up period.
Patients were randomized to receive 0.5 mg, 2 mg, or 5 mg of 2-(cyclohexylmethyl)-N-{2-[(2S)-1-methylpyrrolidin-2-yl]ethyl}-1,2,3,4-tetrahydroisoquinoline-7-sulfonamide difumarate monohydrate (measured in base form), or matching placebo once a day, with donepezil (5 mg or 10 mg in the form the patient took prior to enrollment), for 24 weeks, with or without food.
[…] (NPI) domain scores of irritability/lability, anxiety, agitation/aggression, sleep and nighttime behavior disorders, aberrant motor behaviour, apathy/indifference, appetite/eating change, delusions, depression/dysphoria, disinhibition, elation/euphoria, and hallucinations.

Structure (SMILES): CN1CCC[C@H]1CCNS(=O)(=O)c1ccc2c(c1)CN(CC1CCCCC1)CC2 [API, 2-(cyclohexylmethyl)-N-{2-[(2S)-1-methylpyrrolidin-2-yl]ethyl}-1,2,3,4-tetrahydroisoquinoline-7-sulfonamide difumarate monohydrate]
- activity of the amount given alone, episodic memory deficits (scopolamine treated mice; 0.3 mg/kg alone): inactive
- episodic memory deficits, co-treatment (scopolamine treated mice; 0.3 mg/kg with donepezil hydrochloride 1 mg/kg): reversed episodic memory deficits
- NPI Abberant motor behavior, Ch from bl W12 ([1]; 0.5 mg/day with donepezil): −0.08
- NPI Abberant motor behavior, Ch from bl W24 ([1]; 0.5 mg/day with donepezil): 0.42
- NPI Agitation/Aggression, Ch from bl W12 ([1]; 0.5 mg/day with donepezil): 0.23
- NPI Agitation/Aggression, Ch from bl W24 ([1]; 0.5 mg/day with donepezil): 0.04
- NPI Anxiety, Ch from bl W12 ([1]; 0.5 mg/day with donepezil): 0.20
- NPI Anxiety, Ch from bl W24 ([1]; 0.5 mg/day with donepezil): 0.16
- NPI Apathy/Indifference, Ch from bl W12 ([1]; 0.5 mg/day with donepezil): −0.21
- NPI Apathy/Indifference, Ch from bl W24 ([1]; 0.5 mg/day with donepezil): 0.13
- NPI Appetite/Eating changes, Ch from bl W12 ([1]; 0.5 mg/day with donepezil): −0.58
- NPI Appetite/Eating changes, Ch from bl W24 ([1]; 0.5 mg/day with donepezil): −0.33
- NPI Delusions, Ch from bl W12 ([1]; 0.5 mg/day with donepezil): 0.31
- NPI Delusions, Ch from bl W24 ([1]; 0.5 mg/day with donepezil): 0.28
- NPI Depression/Dysphoria, Ch from bl W12 ([1]; 0.5 mg/day with donepezil): 0.00
- NPI Depression/Dysphoria, Ch from bl W24 ([1]; 0.5 mg/day with donepezil): 0.07
- NPI Disinhibition, Ch from bl W12 ([1]; 0.5 mg/day with donepezil): −0.13
- NPI Disinhibition, Ch from bl W24 ([1]; 0.5 mg/day with donepezil): −0.06
- NPI Elation/Euphoria, Ch from bl W12 ([1]; 0.5 mg/day with donepezil): 0.15
- NPI Elation/Euphoria, Ch from bl W24 ([1]; 0.5 mg/day with donepezil): 0.20
- NPI Hallucination, Ch from bl W12 ([1]; 0.5 mg/day with donepezil): 0.05
- NPI Hallucination, Ch from bl W24 ([1]; 0.5 mg/day with donepezil): −0.06
- NPI Irritability lability, Ch from bl W12 ([1]; 0.5 mg/day with donepezil): −0.07
- NPI Irritability lability, Ch from bl W24 ([1]; 0.5 mg/day with donepezil): 0.09
- NPI Sleep and nighttime behavior, Ch from bl W12 ([1]; 0.5 mg/day with donepezil): 0.30
- NPI Sleep and nighttime behavior, Ch from bl W24 ([1]; 0.5 mg/day with donepezil): −0.23
- NPI Abberant motor behavior, Ch from bl W12 ([1]; 2 mg/day with donepezil): 0.25
- NPI Abberant motor behavior, Ch from bl W24 ([1]; 2 mg/day with donepezil): 0.56
- NPI Agitation/Aggression, Ch from bl W12 ([1]; 2 mg/day with donepezil): 0.48
- NPI Agitation/Aggression, Ch from bl W24 ([1]; 2 mg/day with donepezil): 0.68
- NPI Anxiety, Ch from bl W12 ([1]; 2 mg/day with donepezil): −0.03
- NPI Anxiety, Ch from bl W24 ([1]; 2 mg/day with donepezil): 0.15
- NPI Apathy/Indifference, Ch from bl W12 ([1]; 2 mg/day with donepezil): 0.26
- NPI Apathy/Indifference, Ch from bl W24 ([1]; 2 mg/day with donepezil): 0.92
- NPI Appetite/Eating changes, Ch from bl W12 ([1]; 2 mg/day with donepezil): −0.18
- NPI Appetite/Eating changes, Ch from bl W24 ([1]; 2 mg/day with donepezil): −0.02
- NPI Delusions, Ch from bl W12 ([1]; 2 mg/day with donepezil): −0.05
- NPI Delusions, Ch from bl W24 ([1]; 2 mg/day with donepezil): 0.21
- NPI Depression/Dysphoria, Ch from bl W12 ([1]; 2 mg/day with donepezil): 0.35
- NPI Depression/Dysphoria, Ch from bl W24 ([1]; 2 mg/day with donepezil): 0.12
- NPI Disinhibition, Ch from bl W12 ([1]; 2 mg/day with donepezil): 0.08
- NPI Disinhibition, Ch from bl W24 ([1]; 2 mg/day with donepezil): 0.03
- NPI Elation/Euphoria, Ch from bl W12 ([1]; 2 mg/day with donepezil): −0.06
- NPI Elation/Euphoria, Ch from bl W24 ([1]; 2 mg/day with donepezil): 0.07
- NPI Hallucination, Ch from bl W12 ([1]; 2 mg/day with donepezil): 0.02
- NPI Hallucination, Ch from bl W24 ([1]; 2 mg/day with donepezil): 0.02
- NPI Irritability lability, Ch from bl W12 ([1]; 2 mg/day with donepezil): 0.47
- NPI Irritability lability, Ch from bl W24 ([1]; 2 mg/day with donepezil): 0.63
- NPI Sleep and nighttime behavior, Ch from bl W12 ([1]; 2 mg/day with donepezil): 0.33
- NPI Sleep and nighttime behavior, Ch from bl W24 ([1]; 2 mg/day with donepezil): 0.19
- NPI Abberant motor behavior, Ch from bl W12 ([1]; 5 mg/day with donepezil): −0.11
- NPI Abberant motor behavior, Ch from bl W24 ([1]; 5 mg/day with donepezil): −0.69
- NPI Agitation/Aggression, Ch from bl W12 ([1]; 5 mg/day with donepezil): −0.12
- NPI Agitation/Aggression, Ch from bl W24 ([1]; 5 mg/day with donepezil): 0.58
- NPI Anxiety, Ch from bl W12 ([1]; 5 mg/day with donepezil): 0.12
- NPI Anxiety, Ch from bl W24 ([1]; 5 mg/day with donepezil): 0.12
- NPI Apathy/Indifference, Ch from bl W12 ([1]; 5 mg/day with donepezil): 0.09
- NPI Apathy/Indifference, Ch from bl W24 ([1]; 5 mg/day with donepezil): 0.10
- NPI Appetite/Eating changes, Ch from bl W12 ([1]; 5 mg/day with donepezil): −0.17
- NPI Appetite/Eating changes, Ch from bl W24 ([1]; 5 mg/day with donepezil): 0.1
- NPI Delusions, Ch from bl W12 ([1]; 5 mg/day with donepezil): 0.00
- NPI Delusions, Ch from bl W24 ([1]; 5 mg/day with donepezil): 0.04
- NPI Depression/Dysphoria, Ch from bl W12 ([1]; 5 mg/day with donepezil): −0.07
- NPI Depression/Dysphoria, Ch from bl W24 ([1]; 5 mg/day with donepezil): 0.25
- NPI Disinhibition, Ch from bl W12 ([1]; 5 mg/day with donepezil): 0.00
- NPI Disinhibition, Ch from bl W24 ([1]; 5 mg/day with donepezil): 0.06
- NPI Elation/Euphoria, Ch from bl W12 ([1]; 5 mg/day with donepezil): 0.14
